# Entries after “also recorded” stand apart in the source; their conditions may differ. Where a name gives a salt, the structure may show the parent alone.
# Experiments:
# rat left atria [1] = assay: Reversal or prevention of 2-APB-induced SMA in superfused rat left atria
# Procedure: (A) Titration curve of ranolazine reversal of SMA in superfused left atrial appendage. Superfused appendages (n=7) were treated with 2-APB and following the appearance of SMA they were titrated with increasing concentrations of ranolazine for 3-5 min at any concentration. Rates of SMA in the absence of pacing were recorded. (B) Typical raw mechanical data for an appendage treated with 2-APB and then with 0, 10 or 80 μM ranolazine. All data are in the absence of pacing. […]
# To test whether an anion transport inhibitor affected SMA, atria (n=7) were paced at 0.1 Hz in KH and exposed to 15 μM 2-APB. Following the appearance of SMA, they were titrated with 100 to 400 μM DIDS for 3 to 5 min at each concentration. Whether SMA occurred at the end of each titration period was recorded.
# In these experiments, a 2-APB model system was used to simulate abnormal automaticity. Specifically, paced (0.1 Hz) superfused left atria were treated with 2-APB (20 μM) and the pacing stimulus was stopped after the appearance of SMA. SKF-96365 (25 μM) was then added to the superfusate and the effect on SMA was measured.
# (§1) Additional experiments determined the concentration-dependence of SKF-96365 inhibtion of SMA. These experiments were performed as described above except that various concentrations of SKF-96365 were added to the left atrial superfusate (about 10-65 μM).
# In these experiments, a 2-APB model system was used to simulate abnormal automaticity. Specifically, superfused left atria were exposed to 0 or to 50 μM SKF-96365 for 10 min. Following this pre-incubation, muscles were titrated with increasing concentrations of 2-APB (0-30 μM) and the rate of SMA was measured about 10 min later in the absence of pacing.
# rat left atria [2] = assay: Suppression of STA induced by 2-APB plus BayK 8644 or isoproterenol in left atria
# Procedure: 3 Hz-paced left atria (n=9 per group) were superfused (i) in Krebs-Henseleit alone or (ii) they were treated with 20 μM 2-APB for 10 min, (iii) with 300 nM BayK 8644 for 10 min and with 20 μM 2-APB for 10 min, or (iv) they were treated with 300 nM BayK 8644 and 20 μM 2-APB for 10 min, then with 70 μM zatebradine (3-[3-[[2-(3,4-Dimethoxyphenyl)ethyl]methyl amino]propyl]-1,3,4,5-tetrahydro-7,8,-dimethoxy-2H-3-benzazepin-2-one hydrochloride) for 10 min (Baruscotti et al., 2005). Pacing was interrupted at these times and rates of SMA were recorded.
# Left atria (n=9) were paced at 0.1 Hz, treated with 300 nM BayK 8644 for 5 min, then with 20 μM 2-APB for 10 min, and the pacing stimulus was stopped. These preparations then were incubated with six increasing concentrations of zatebradine (10-100 μM) for 3-5 min at each concentration, and rates of SMA were recorded. Untreated right atria (n=9) also were titrated with zatebradine and its effect on contraction frequency was recorded.
# To test whether zatebradine affects left atrial force of contraction, two groups of left atria (n=9 per group) were paced at 3 Hz and treated with 300 nM BayK 8644. Five minutes later one group was incubated with six increasing concentrations of zatebradine (10-100 μM) for 3-5 min at each concentration, and forces of contraction were recorded. A second group was treated with BayK 8644 but not zatebradine, and forces of contraction were recorded at corresponding times.
# To test whether zatebradine affects the SMA occurring in the presence of 2-APB and isoproterenol, left atria (n=7) were paced at 0.1 Hz, treated with 30 nM isoproterenol for 5 min, then with 20 μM 2-APB for 10 min, and the pacing stimulus was stopped. Rates of SMA were recorded, these left atria were exposed to 70 μM zatebradine for 10 min, and rates of SMA were recorded again. A group of right atria (n=7) also were exposed to 30 nM isoproterenol for 5 min and then to 70 μM zatebradine for 10 min. Right atrial contraction frequency was recorded at these two times.
# To test whether ZD-7288, an If inhibitor structurally unrelated to zatebradine (Baruscotti et al., 2005; Sanders et al., 2006) affects the SMA occurring in the presence of 2-APB and BayK 8644, rat left atria (n=7) were treated with 300 nM BayK 8644 for 5 min, then with 20 μM 2-APB for 10 min, and the rates of ectopic activity were recorded. These atria then were incubated with six increasing concentrations of ZD-7288 (10-100 μM) for 3-5 min at each concentration, and the rates of SMA were recorded. Right atria (n=7) were titrated similarly with ZD-7288 (0-100 μM) and the change in their contraction frequency was recorded.
# In these experiments, a 2-APB model system was used to simulate tachycardic abnormal automaticity. Specifically, superfused left atria were treated sequentially with 300 nM BayK 8644, an activator of voltage-dependent calcium entry, which loads myocytes with calcium, and then with 2-APB (20 μM) to activate the putative myocyte system for abnormal automaticity. […] SKF-96365 (10 μM) was added to the superfusate. SKF-96365 reversed STA in these left atria within 2-3 min and the muscle became quiescent in the absence of pacing (FIG. 34, “Rest”).
# as §1, with “inhibition” for “inhibtion”, “STA.” for “SMA.”, “10-70” for “10-65”, “μM). Exposing left atria to various concentrations of SKF-96365 reversed STA (FIG. 35).” for “μM).”
# rat left atria [3] = test system: rat left atria
# rat left atria [4] = assay: tissue or blood; details: 5 min, read-out: IC50 for suppression of triggered ectopic contractions induced by ATX II
# rat left atria [5] = assay: Chaotic, fibrillation-like activity in left atria at 37° C., paced at 6 Hz
# Procedure: In this example, it was evaluated whether SKF-96365 could reverse chaotic, fibrillation-like activity. In these experiments, left atria were superfused at 37° C., paced at 6 Hz (a physiological rate under these conditions), exposed to 300 nM BayK 8644 to load calcium and then to 20 μM 2-APB to induce tachycardic activity.
smiles,measurement,setting,value
"COc1ccc(CCCOC(Cn2ccnc2)c2ccc(OC)cc2)cc1 (stereo not drawn) [SKF-96365, 1-[β-(3-(4-Methoxyphenyl)propoxy)-4-methoxyphenethyl]-1H-imidazole hydrochloride]",effect on normal excitation-contraction coupling,"rat left atria [1]; 25 μM SKF-96365, 0.1 Hz pacing restored after SMA suppression",did not affect normal excitation-contraction coupling
same,time to suppression of SMA,"rat left atria [1]; 25 μM SKF-96365, 2-APB-treated left atria, absence of pacing",2 to 3 min
same,prevention of SMA by pre-treatment,"rat left atria [1]; 50 μM SKF-96365 for 10 min, then 2-APB 0-30 μM, measured ~10 min later without pacing, hydrochloride",prevents the appearance of SMA
same,IC50,"rat left atria [1]; Rattus norvegicus, read-out: IC50 for inhibition (reversal) of SMA",~15 µM
same,effect on 2-APB-induced sporadic ectopic activity (SMA),"rat left atria [1]; titration after appearance of SMA, absence of pacing",suppressed SMA
same,time to suppression of SMA,rat left atria [1]; various concentrations of SKF-96365 (about 10-65 μM),2 to 3 min
same,time to reversal of STA,"rat left atria [2]; 300 nM BayK 8644 + 20 μM 2-APB, SKF-96365 (10 μM), absence of pacing",2 to 3 min
same,effect on STA initiated by BayK 8644 and 2-APB,"rat left atria [2]; 300 nM BayK 8644 + 20 μM 2-APB, zatebradine 70 μM, ZD-7288 10-100 μM, SKF-96365 about 10-70 μM, hydrochloride",reverses STA
same,effect on normal excitation-contraction coupling,"rat left atria [2]; after STA reversal, 0.1 Hz pacing restored",did not affect normal excitation-contraction coupling
same,triggered activity after exposure to SKF-96365,"rat left atria [3]; 25 nM ATX II, 20 μM SKF-96365 for ~5 min, 1 Hz pacing, hydrochloride",shows no triggered activity; also recorded: shows no triggered events; also recorded: suppresses triggered activity
same,effect on left atrial force of contraction / mechanical performance (titration),"rat left atria [3]; 25 nM ATX II, 1 Hz-paced, ~5 min at each concentration, hydrochloride",did not decrease the mechanical performance; also recorded: did not affect left atrial force of contraction
same,prevention of triggered activity by pre-treatment,"rat left atria [3]; SKF-96365 20 μM (legend 20-25 μM) for ~10 min before 25 nM ATX II, recorded over 10-15 min, hydrochloride",prevents the appearance of triggered activity; also recorded: triggered activity does not occur
same,time to reversal of triggered activity,rat left atria [3]; SKF-96365 added to superfusate of left atria undergoing ATX II triggered activity,2 to 5 min
same,IC50,rat left atria [4],~12 µM
same,time to restoration of normal patterns of excitation-contraction,"rat left atria [5]; ~40 μM SKF-96365, 300 nM BayK 8644 + 20 μM 2-APB",5 to 8 min
same,"effect on chaotic, fibrillation-like mechanical activity","rat left atria [5]; ~40 μM SKF-96365, hydrochloride",restores normal patterns of excitation-contraction; also recorded: no longer contracted chaotically
